Results published in ChEMBL document CHEMBL3132855, “Synthesis and antiviral evaluation of 4-(1,2,3-triazol-1-yl)thymidines” (Medchemcomm, 2014).
Active and inactive are the calls of the source. The calls are words filed in the database; no cut-off is given here.

Assays:
[1] = test system: West Nile virus; assay: Antiviral activity against West Nile virus infected in baby hamster BHK-WII RepRen1B cells assessed as inhibition of viral replication at 10 uM after 3 days by luciferase assay; type: functional, organism-based
[2] = Cytotoxicity against human CEM-SS cells assessed as cell viability at 10 uM after 6 days by MTS assay; type: cell-based; details: read-out: Activity
[3] = test system: Influenza A virus; assay: Antiviral activity against Influenza A/WSN/33 virus infected in human A549 cells assessed as inhibition of virus-induced cytopathic effect at 10 uM after 5 days by neutral red assay; type: functional; details: A/WSN/1933(H1N1), A549, 120 h
[4] = test system: Human immunodeficiency virus 1; assay: Antiviral activity against HIV1 3B infected in human CEM-SS cells assessed as inhibition of virus-induced cytopathic effect at 10 uM after 6 days by MTS assay; type: functional; details: Human immunodeficiency virus 1, 3B, 144 h
[5] = test system: Hepatitis C virus; assay: Antiviral activity against HCV1b infected in human HuH-7 cells assessed as inhibition of viral replication at 10 uM after 3 days by luciferase assay; type: functional, organism-based; details: Hepacivirus hominis, genotype 1b
[6] = test system: Influenza A virus; assay: Antiviral activity against Influenza A/WSN/33 virus infected in MDCK cells assessed as inhibition of virus-induced cytopathic effect at 10 uM after 5 days by neutral red assay; type: functional; details: A/WSN/1933(H1N1), 120 h

SMILES | inhibition [1] | viability at 144 h, 10 µM [2] | inhibition at 10 µM [3] | inhibition at 10 µM [4] | inhibition [5] | inhibition at 10 µM [6]
Cc1cn([C@H]2C[C@H](O)[C@](CO)(n3cc(C4CCCCC4)nn3)O2)c(=O)[nH]c1=O | inactive | 96% | 2.2% | 0% | inactive | –
Cc1cn([C@H]2C[C@H](O)[C@](CO)(n3cc(-c4ccc(N(C)C)cc4)nn3)O2)c(=O)[nH]c1=O | inactive | 100% | 21% | 12% | inactive | 1%
Cc1cn([C@H]2C[C@H](O)[C@](CO)(n3cc(-c4ccsc4)nn3)O2)c(=O)[nH]c1=O | inactive | 100% | 0% | 19% | inactive | –
Cc1cn([C@H]2C[C@H](O)[C@](CO)(n3cc(COc4ccccc4)nn3)O2)c(=O)[nH]c1=O | inactive | 97% | 10% | 0% | inactive | –
Cc1cn([C@H]2C[C@H](O)[C@](CO)(n3cc(-c4ccccc4)nn3)O2)c(=O)[nH]c1=O | inactive | 94% | 0% | 62% | inactive | –
COc1ccc2c(-c3cn([C@]4(CO)O[C@@H](n5cc(C)c(=O)[nH]c5=O)C[C@@H]4O)nn3)cccc2c1 | inactive | 95% | 5.3% | 0% | inactive | –
Cc1cn([C@H]2C[C@H](O)[C@](CO)(n3cc(-c4ccc(F)cc4)nn3)O2)c(=O)[nH]c1=O | inactive | 95% | 0% | 0% | inactive | –
Cc1cn([C@H]2C[C@H](O)[C@](CO)(n3cc(COc4ccc5ccccc5c4)nn3)O2)c(=O)[nH]c1=O | inactive | 93% | 16% | 0% | inactive | 1%
Cc1cn([C@H]2C[C@H](O)[C@](CO)(n3cc(CSc4ccccc4)nn3)O2)c(=O)[nH]c1=O | inactive | 99% | 3.3% | 20% | inactive | –
COc1ccc(-c2cn([C@]3(CO)O[C@@H](n4cc(C)c(=O)[nH]c4=O)C[C@@H]3O)nn2)cc1 | inactive | 84% | 19% | 0% | inactive | 1%
Cc1cn([C@H]2C[C@H](O)[C@](CO)(n3cc(-c4ccc(Oc5ccccc5)cc4)nn3)O2)c(=O)[nH]c1=O | inactive | 95% | 48% | 1% | inactive | 1%
Cc1cn([C@H]2C[C@H](O)[C@](CO)(n3cc(C(C)O)nn3)O2)c(=O)[nH]c1=O (stereo partly specified) | inactive | 100% | 0% | 8% | inactive | –
Cc1cn([C@H]2C[C@H](O)[C@](CO)(n3cc(C4CC4)nn3)O2)c(=O)[nH]c1=O | inactive | 99% | 0% | 0% | inactive | –
Cc1cn([C@H]2C[C@H](O)[C@](CO)(n3cc(CON4C(=O)c5ccccc5C4=O)nn3)O2)c(=O)[nH]c1=O | inactive | 99% | 3.7% | 1% | inactive | –
Cc1cn([C@H]2C[C@H](O)[C@](CO)(n3cc(CO)nn3)O2)c(=O)[nH]c1=O | inactive | 100% | 0% | 2% | inactive | –
CCOC(=O)C(Cc1ccc(OCc2cn([C@]3(CO)O[C@@H](n4cc(C)c(=O)[nH]c4=O)C[C@@H]3O)nn2)cc1)NC(=O)OC(C)(C)C (stereo partly specified) | inactive | 97% | 0% | 0% | inactive | –
Cc1ccc(-c2cn([C@]3(CO)O[C@@H](n4cc(C)c(=O)[nH]c4=O)C[C@@H]3O)nn2)cc1 | inactive | 99% | 0% | 0% | inactive | –
Cc1cn([C@H]2C[C@H](O)[C@](CO)(n3cc(-c4ccc(-c5ccccc5)cc4)nn3)O2)c(=O)[nH]c1=O | inactive | 80% | 1.7% | 31% | inactive | –
COc1ccc2cc(-c3cn([C@]4(CO)O[C@@H](n5cc(C)c(=O)[nH]c5=O)C[C@@H]4O)nn3)ccc2c1 | inactive | 95% | 0% | 18% | inactive | –
Cc1cn([C@H]2C[C@H](O)[C@](CO)(n3cc(-c4ccc(Br)cc4)nn3)O2)c(=O)[nH]c1=O | inactive | 100% | 18% | 60% | inactive | 4%
CC(=O)Nc1ccc(-c2cn([C@]3(CO)O[C@@H](n4cc(C)c(=O)[nH]c4=O)C[C@@H]3O)nn2)cc1 | inactive | 98% | 54% | 0% | inactive | 3%
Cc1cn([C@H]2C[C@H](O)[C@](CO)(n3cc(-c4cc5ccccc5c5ccccc45)nn3)O2)c(=O)[nH]c1=O | inactive | 86% | 0% | 0% | inactive | –
Cc1cn([C@H]2C[C@H](O)[C@](CO)(n3cc(C(O)c4ccccc4)nn3)O2)c(=O)[nH]c1=O (stereo partly specified) | inactive | 100% | 5% | 0% | inactive | –
Cc1cn([C@H]2C[C@H](O)[C@](CO)(n3cc(C4CCCC4)nn3)O2)c(=O)[nH]c1=O | inactive | 100% | 3.1% | 5% | inactive | –
